In paper PMC11627468, “Novel enzyme‐resistant pancreatic polypeptide analogs evoke pancreatic beta‐cell rest, enhance islet cell turnover, and inhibit food intake in mice” (Biofactors (Oxford, England), 2024):

System: T1, DPP-4
T1 construct: purchased Sigma-Aldrich
Experiment: In vitro DPP‐4 degradation
Assay type: in vitro ADME, human
Conditions: purified human DPP-4 enzyme; peptide 50 μg with purified human DPP‐4 (5 μL, 0.01 U/L), 37°C, 8 h; stopped with 10% (v/v) trifluoroacetic acid; rp‐HPLC C‐18, UV 214 nm; peaks by MALDI‐MS; read-out: % intact peptide after 8 h DPP‐4 incubation
Method: PP peptides (50 μg) were incubated at 37°C for 0–8 h with 5 μL of purified human DPP‐4 enzyme (0.01 U/L, Sigma‐Aldrich, Gillingham, UK). Degradation reactions were terminated via the addition of 10 μL 10% (v/v) trifluoroacetic acid/water solution. Reaction mixes were separated by reverse phase rp‐HPLC using a Phenomenex C‐18 analytical column (250 × 4.6 mm^2) with UV absorbance detection at 214 nm (ThermoQuest SpectraSystem UV2000 detector). HPLC peaks of interest were collected and analyzed by MALDI‐TOF MS on a Perseptive Biosystems Voyager‐DE Biospectrometry (Hertfordshire, UK).

remaining at 8 h: > 99%
SMILES: CC[C@H](C)[C@H](NC(=O)[C@H](Cc1ccc(O)cc1)NC(=O)[C@H](CCCNC(=N)N)NC(=O)[C@H](CCCNC(=N)N)NC(=O)[C@H](CC(C)C)NC(=O)[C@H](CC(=O)O)NC(=O)[C@H](C)NC(=O)[C@H](C)NC(=O)[C@H](Cc1ccc(O)cc1)NC(=O)[C@H](CCC(N)=O)NC(=O)[C@H](C)NC(=O)[C@H](CCSC)NC(=O)[C@H](CCC(N)=O)NC(=O)[C@H](CCC(=O)O)NC(=O)[C@@H]1CCCN1C(=O)[C@@H](NC(=O)[C@H](C)NC(=O)[C@H](CC(N)=O)NC(=O)[C@H](CC(=O)O)NC(=O)CNC(=O)[C@@H]1CCCN1C(=O)[C@H](Cc1ccc(O)cc1)NC(=O)[C@@H](NC(=O)[C@@H]1CCCN1C(=O)[C@H](CCC(=O)O)NC(=O)[C@@H]1CCCN1C(=O)[C@@H]1CCCN1C(=O)[C@H](C)N)C(C)C)[C@@H](C)O)C(=O)N[C@@H](CC(N)=O)C(=O)N[C@@H](CCSC)C(=O)N[C@@H](CC(C)C)C(=O)N[C@H](C(=O)N[C@@H](CCCNC(=N)N)C(=O)N1CCC[C@H]1C(=O)N[C@@H](CCCNC(=N)N)C(=O)N[C@@H](Cc1ccc(O)cc1)C(N)=O)[C@@H](C)O [[P^3]PP]
